This experiment deals with Maize (Pioneer 34-N-45). Put plainly: Maize field trial, mixture with epoxiconazol, Colby synergism (Example 6). To be noted: 50 g a.i./ha of each compound. The experiment is classed as in vivo. On the procedure:
Maize was grown in 2008 in a field trial at the BASF experimental station in Dinuba, 10181 Avenue 416, Calif., U.S.A. The variety Pioneer 34-N-45 was planted at a seeding rate of 35.000 plants/ha. The trial was setup as a randomized bloc design with 5 replications, each. Plot size was 43 m^2.
The maize plants were either untreted, treated with epoxiconazol (A3), with compound Ia, and with a mixture comprising compound Ia and epoxiconazol. Epoxiconazol was applied as the commercial formulation OPUS™ (125 g a.i./L, SC formulation) at a dose rate of 0.4 L/ha (50 g a.i./ha). Compound Ia was used as an EC formulation (62.5 g a.i./L) with a dose rate of 0.8 L per hectar (50 g a.i./ha). Epoxiconazol was applied together with compound Ia (as a mixture) using a co-formulation of both compounds (EC formulation, 62.5 g a.i./L each) with a product rate of 0.8 L/ha. The formulation was applied in a total spray volume of 300 L/ha. Compound Ia was sprayed at growth stage 51/55 (BBCH) with a tractor mounted spray boom with VS11003 spray nozzles at 3 bar spray pressure.
No disease symptoms were visible at the application time and no symptoms were detected at later stages.
At maturity the grain was harvested and the grain yield per plot, as an indicator of plant yield, was determined (kg/plot). Finally, the grain yield per hectare was calculated (dt/ha).
The efficacy was calculated as % increase of the grain yield (dt/ha) by each treatment compared to the untreated control.
The expected efficacies of the combinations of the active compounds were estimated using Colby's formula (Colby, S. R., Calculating synergistic and antagonistic responses of herbicide combinations, Weeds, 15, pp. 20-22, 1967) and compared with the observed efficacies.
E=x+y−x·y/100 Colby's formula: • E expected efficacy, expressed in % of the untreated control, when using the mixture of the active compounds A and B at the concentrations a and b • x efficacy, expressed in % of the untreated control, when using the active ingredient A at the concentration a • y efficacy, expressed in % of the untreated control, when using the active ingredient B at the concentration b

These results are taken from patent US20110263423A1, “Plant Health Composition” (BASF SE, priority 2008, published 2011).

Turning to `Fc1ccc([C@]2(Cn3cncn3)O[C@H]2c2ccccc2Cl)cc1` (racemic) [Epoxiconazol (A3), epoxiconazole, reference compound], the “Observed efficacy (% increase of grain yield vs untreated control)” value came out at 0.9%. Besides, the Grain yield (BBCH 51/55) was found to be 155.8 dt/ha.
